Test results: patent US20200216417A1, “INHIBITORS OF FIBROBLAST ACTIVATION PROTEIN” (Praxis Biotech LLC, priority 2019, published 2020)

What was measured:
[1] = upon standing in pH 7.8; cyclization (Narra et al., 2007); cited from earlier work
[2] = test system: human AML cell line MV4-11; experiment: Cytotoxicity assay in human leukemia cell lines (Cell-Titer Glo); conditions: MV4-11, 48 h, read-out: MV4-11 viability IC50, μM

**Q.** What does the source list for `CC(C)[C@H](N)C(=O)N1CCC[C@H]1B(O)O` [Val-boroPro, reference compound]?
**A.** stability of protease inhibitory activity [1]: rapidly loses protease inhibitory activity; IC50 [2]: < 3 µM
